Drawing on paper PMC5391474, “Investigation of the Role of Protein Kinase D in Human Rhinovirus Replication” (Journal of Virology, 2017), this text covers inhibition for one compound.

Test [1] deals with DAPK1(h) (Homo sapiens, UniProt P53355). As to the kind of experiment: biochemical. Also noted: in vitro kinase selectivity panel, protein and lipid kinases, single concentration, ATP at Km. The settings on record: ATP at Km. In a few lines: (§1)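 Single-point screen against a protein and lipid kinase panel: inhibitor at 1 μM. ATP concentration for every kinase equivalent to its Km.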
DAPK1(h), sequence (P53355 whole entry): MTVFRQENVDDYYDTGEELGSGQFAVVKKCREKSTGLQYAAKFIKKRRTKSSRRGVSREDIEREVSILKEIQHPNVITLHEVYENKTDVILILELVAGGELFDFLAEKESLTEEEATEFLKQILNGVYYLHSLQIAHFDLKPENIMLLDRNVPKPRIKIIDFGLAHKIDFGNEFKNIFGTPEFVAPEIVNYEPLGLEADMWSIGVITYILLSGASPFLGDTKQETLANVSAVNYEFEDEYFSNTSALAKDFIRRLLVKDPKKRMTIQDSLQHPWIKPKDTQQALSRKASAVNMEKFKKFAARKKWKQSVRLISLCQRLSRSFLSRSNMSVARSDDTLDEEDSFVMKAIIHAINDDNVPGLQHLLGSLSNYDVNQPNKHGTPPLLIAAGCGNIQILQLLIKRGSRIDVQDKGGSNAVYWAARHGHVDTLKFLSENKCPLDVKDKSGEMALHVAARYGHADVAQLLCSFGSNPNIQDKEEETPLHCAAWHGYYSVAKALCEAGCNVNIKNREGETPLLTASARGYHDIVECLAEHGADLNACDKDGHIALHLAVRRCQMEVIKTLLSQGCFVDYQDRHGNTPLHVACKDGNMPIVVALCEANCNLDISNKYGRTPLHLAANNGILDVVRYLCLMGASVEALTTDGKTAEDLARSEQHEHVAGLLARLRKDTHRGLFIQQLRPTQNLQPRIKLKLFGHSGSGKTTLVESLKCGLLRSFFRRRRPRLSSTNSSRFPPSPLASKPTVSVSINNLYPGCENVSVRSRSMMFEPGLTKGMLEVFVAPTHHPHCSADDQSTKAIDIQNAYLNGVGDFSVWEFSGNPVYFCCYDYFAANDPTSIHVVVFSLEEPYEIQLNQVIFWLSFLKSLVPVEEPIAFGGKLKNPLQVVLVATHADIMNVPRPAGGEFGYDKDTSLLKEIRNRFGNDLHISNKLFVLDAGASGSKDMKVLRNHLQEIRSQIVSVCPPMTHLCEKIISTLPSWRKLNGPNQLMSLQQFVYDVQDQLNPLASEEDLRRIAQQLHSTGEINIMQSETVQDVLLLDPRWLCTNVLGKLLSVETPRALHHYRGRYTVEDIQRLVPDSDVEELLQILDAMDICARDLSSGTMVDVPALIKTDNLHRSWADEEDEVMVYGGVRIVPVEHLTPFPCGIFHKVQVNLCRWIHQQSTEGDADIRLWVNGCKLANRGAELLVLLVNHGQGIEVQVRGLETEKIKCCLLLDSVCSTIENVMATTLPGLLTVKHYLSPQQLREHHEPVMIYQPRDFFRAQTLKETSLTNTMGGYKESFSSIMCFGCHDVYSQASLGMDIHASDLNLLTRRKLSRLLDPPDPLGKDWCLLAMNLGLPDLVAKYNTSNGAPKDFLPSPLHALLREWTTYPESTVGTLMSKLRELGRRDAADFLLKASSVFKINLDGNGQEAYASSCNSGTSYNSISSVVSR

Test [2] concerns the target T1, GSK3β(h) (Homo sapiens, UniProt P49841).
T1 construct: gene GSK3B
Nature of the test: biochemical. Also noted: in vitro kinase selectivity panel, protein and lipid kinases, single concentration, ATP at Km. The settings on record: ATP at Km. In outline:
as §1

T1 sequence (P49841 whole entry): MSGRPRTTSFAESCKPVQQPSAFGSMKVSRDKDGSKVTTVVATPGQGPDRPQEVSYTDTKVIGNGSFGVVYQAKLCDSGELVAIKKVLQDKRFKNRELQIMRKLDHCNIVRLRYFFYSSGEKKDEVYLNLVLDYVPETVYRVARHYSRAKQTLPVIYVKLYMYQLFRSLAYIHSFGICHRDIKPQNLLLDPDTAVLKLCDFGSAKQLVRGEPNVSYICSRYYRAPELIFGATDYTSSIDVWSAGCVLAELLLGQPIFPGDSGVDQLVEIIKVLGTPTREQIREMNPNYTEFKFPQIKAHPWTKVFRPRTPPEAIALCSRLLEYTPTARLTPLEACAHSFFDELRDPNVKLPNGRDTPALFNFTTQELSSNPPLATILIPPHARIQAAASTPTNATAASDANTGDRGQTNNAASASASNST

As for `CC[C@@H](N)CNc1ccnc(-c2cc(-c3cnn(C)c3)ccc2O)n1` [CRT0066101], the inhibition at 1 µM is -8% in test [1] and 18% in test [2].
